# Assay results: patent US6737383B1, “Herbicidal oxadiazolidines” (priority 1999, dated 2004)
# Experiments:
# cocklebur = test: Test B pre/postemergence cocklebur; format: in vivo, Xanthium strumarium
# In short: (§1)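 Response is a visual 0-to-10 score relative to untreated plants, where 0 means no effect and 10 means complete control, taken twelve to sixteen days after application. Treatments went onto soil at planting and onto foliage of 1- to 4-leaf plants, using a surfactant-containing non-phytotoxic solvent.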
# green foxtail = test: Test E green foxtail; format: in vivo, Setaria viridis; conditions: Preemergence
# winter wheat [1] = test: Test E winter wheat; format: in vivo, Triticum aestivum; conditions: Postemergence
# In short: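 For postemergence, plants at the 1- to 4-leaf stage, in a 60:40 mix of sandy loam and potting mix, treated with compound formulated in a surfactant-containing non-phytotoxic solvent. Visual assessment versus untreated controls followed roughly 21–28 days in the greenhouse.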
# blackgrass = test: Test E blackgrass; format: in vivo, Alopecurus myosuroides; conditions: Preemergence
# winter wheat [2] = test: Test E winter wheat; format: in vivo, Triticum aestivum; conditions: Preemergence
# Italian ryegrass = test: Test E Italian ryegrass; format: in vivo, Lolium multiflorum; conditions: Preemergence
# soybean = test: Test B pre/postemergence soybean; format: in vivo, Glycine max
# In short: as §1
# pigweed = test: Test B pre/postemergence pigweed; format: in vivo, Amaranthus retroflexus
# In short: as §1
# winter barley = test: Test E winter barley; format: in vivo, Hordeum vulgare; conditions: Preemergence
# morningglory = test: Test B pre/postemergence morningglory; format: in vivo, Ipomoea hederacea
# In short: as §1
# wild oat = test: Test E wild oat; format: in vivo, Avena fatua; conditions: Preemergence
# [3] = Postemergence, Rate 31 g/ha, visual rating, scale 0 to 10 (0 no effect, 10 complete control)
# [4] = Preemergence, Rate 31 g/ha, visual rating, scale 0 to 10 (0 no effect, 10 complete control)
# [5] = Preemergence, Rate 62 g/ha, scale of 0 to 10 where 0 is no effect and 10 is complete control
# [6] = Rate 16 g/ha, Postemergence, scale 0 to 10, 0 no effect, 10 complete control
# [7] = Rate 16 g/ha, Preemergence, scale 0 to 10, 0 no effect, 10 complete control
# [8] = Rate 62 g/ha, Postemergence, scale 0 to 10 (0 no effect, 10 complete control)
# [9] = Rate 125 g/ha, Postemergence, scale of 0 to 10 where 0 is no effect and 10 is complete control
# [10] = Rate 125 g/ha, Preemergence, scale of 0 to 10 where 0 is no effect and 10 is complete control
# [11] = Rate 500 g/ha, 0 to 100 scale (0 no effect, 100 complete control)
# [12] = Rate 1000 g/ha, 0 to 100 scale, 0 no effect, 100 complete control
# [13] = Rate 1000 g/ha, 0 to 100 scale where 0 is no effect and 100 is complete control
# [14] = Rate 500 g/ha, 0 to 100 scale, 0 is no effect, 100 is complete control
# [15] = Preemergence, Rate 250 g/ha, scale of 0 to 10 where 0 is no effect and 10 is complete control
# [16] = Preemergence, Rate 500 g/ha, scale of 0 to 10 where 0 is no effect and 10 is complete control
# [17] = Rate 250 g/ha, Postemergence, scale of 0 to 10 where 0 is no effect and 10 is complete control
compound,measurement,setting,value
C=CCCCn1c(=O)on(C(=O)N(c2ccc(F)cc2)C(C)C)c1=O [Compound 291],Cocklebur plant response rating,cocklebur; [3],0
same,Cocklebur plant response rating,cocklebur; [4],0
same,Cocklebur plant response rating,cocklebur; [5],0
same,Cocklebur plant response rating,cocklebur; [6],0
same,Cocklebur plant response rating,cocklebur; [7],0
same,Cocklebur plant response rating,cocklebur; [8],0
same,Cocklebur plant response rating,cocklebur; [9],0
same,Cocklebur plant response rating,cocklebur; [10],0
same,Green foxtail plant response rating (0 to 100 scale),green foxtail; Rate 250 g/ha,55
same,"Plant response rating, Green foxtail",green foxtail; [11],85
same,"Plant response rating, Green foxtail",green foxtail; [12],100
same,"Plant response rating, Wheat (winter)",winter wheat [1]; [13],55
same,Wheat (winter) plant response rating,"winter wheat [1]; Rate 250 g/ha, 0 to 100 scale where 0 is no effect and 100 is complete control",30
same,"Plant response rating, Wheat (winter)",winter wheat [1]; [14],40
same,Blackgrass plant response rating (0 to 100 scale),blackgrass; Rate 250 g/ha,30
same,"Plant response rating, Blackgrass",blackgrass; [11],40
same,"Plant response rating, Blackgrass",blackgrass; [12],50
same,Wheat (winter) plant response rating (0 to 100 scale),winter wheat [2]; Rate 250 g/ha,35
same,"Plant response rating, Wheat (winter)",winter wheat [2]; [11],50
same,"Plant response rating, Wheat (winter)",winter wheat [2]; [12],60
same,I. Ryegrass plant response rating (0 to 100 scale),Italian ryegrass; Rate 250 g/ha,70
same,"Plant response rating, I. Ryegrass",Italian ryegrass; [11],100
same,"Plant response rating, I. Ryegrass",Italian ryegrass; [12],90
same,Soybean plant response rating,soybean; [3],1
same,Soybean plant response rating,soybean; [4],0
same,Soybean plant response rating,soybean; [5],0
same,Soybean plant response rating,soybean; [6],1
same,Soybean plant response rating,soybean; [7],0
same,Soybean plant response rating,soybean; [8],1
same,Soybean plant response rating,soybean; [9],3
same,Soybean plant response rating,soybean; [10],0
same,Redroot pigweed plant response rating,pigweed; [3],0
same,Redroot pigweed plant response rating,pigweed; [4],0
same,Redroot pigweed plant response rating,pigweed; [5],0
same,Redroot pigweed plant response rating,pigweed; [6],0
same,Redroot pigweed plant response rating,pigweed; [7],0
same,Redroot pigweed plant response rating,pigweed; [8],0
same,Redroot pigweed plant response rating,pigweed; [9],0
same,Redroot pigweed plant response rating,pigweed; [10],0
same,Barley (winter) plant response rating (0 to 100 scale),winter barley; Rate 250 g/ha,10
same,"Plant response rating, Barley (winter)",winter barley; [11],30
same,"Plant response rating, Barley (winter)",winter barley; [12],20
same,Morningglory plant response rating,morningglory; [3],1
same,Morningglory plant response rating,morningglory; [4],0
same,Morningglory plant response rating,morningglory; [5],0
same,Morningglory plant response rating,morningglory; [6],1
same,Morningglory plant response rating,morningglory; [7],0
same,Morningglory plant response rating,morningglory; [8],4
same,Morningglory plant response rating,morningglory; [9],4
same,Morningglory plant response rating,morningglory; [10],0
same,Wild oat plant response rating (0 to 100 scale),wild oat; Rate 250 g/ha,20
same,"Plant response rating, Wild oat",wild oat; [11],50
same,"Plant response rating, Wild oat",wild oat; [12],60
CCN(C(=O)n1oc(=O)n(C(C)C)c1=O)C1CCCCC1 [Compound 309],Cocklebur plant response rating,cocklebur; [5],0
same,Cocklebur plant response rating (0 to 10 scale),"cocklebur; Preemergence, Rate 125 g/ha",0
same,Cocklebur plant response rating,cocklebur; [15],0
same,Cocklebur plant response rating,cocklebur; [16],0
same,Cocklebur plant response rating,cocklebur; [8],0
same,Cocklebur plant response rating,cocklebur; [9],0
same,"Plant response rating, Cocklebur",cocklebur; [17],0
same,Cocklebur plant response rating,"cocklebur; Rate 500 g/ha, Postemergence, scale 0 to 10, 0 no effect, 10 complete control",0
same,"Plant response rating, Green foxtail","green foxtail; Rate 250 g/ha, 0 to 100 scale",65
same,"Plant response rating, Green foxtail",green foxtail; [11],100
same,"Plant response rating, Green foxtail",green foxtail; [12],100
same,"Plant response rating, Wheat (winter)","winter wheat [1]; Rate 250 g/ha, 0 to 100 scale, 0 is no effect, 100 is complete control",50
same,"Plant response rating, Wheat (winter)",winter wheat [1]; [13],80
same,"Plant response rating, Wheat (winter)",winter wheat [1]; [14],70
same,"Plant response rating, Blackgrass","blackgrass; Rate 250 g/ha, 0 to 100 scale",60
same,"Plant response rating, Blackgrass",blackgrass; [11],60
same,"Plant response rating, Blackgrass",blackgrass; [12],75
same,"Plant response rating, Wheat (winter)","winter wheat [2]; Rate 250 g/ha, 0 to 100 scale",70
same,"Plant response rating, Wheat (winter)",winter wheat [2]; [11],65
same,"Plant response rating, Wheat (winter)",winter wheat [2]; [12],70
same,"Plant response rating, I. Ryegrass","Italian ryegrass; Rate 250 g/ha, 0 to 100 scale",50
same,"Plant response rating, I. Ryegrass",Italian ryegrass; [11],60
same,"Plant response rating, I. Ryegrass",Italian ryegrass; [12],70
same,Soybean plant response rating,soybean; [5],0
same,Soybean plant response rating (0 to 10 scale),"soybean; Preemergence, Rate 125 g/ha",0
same,Soybean plant response rating,soybean; [15],0
same,Soybean plant response rating,soybean; [16],0
same,Soybean plant response rating,soybean; [8],2
same,Soybean plant response rating,soybean; [9],2
same,"Plant response rating, Soybean",soybean; [17],2
same,Redroot pigweed plant response rating,pigweed; [5],0
same,Redroot pigweed plant response rating (0 to 10 scale),"pigweed; Preemergence, Rate 125 g/ha",0
same,Redroot pigweed plant response rating,pigweed; [15],0
same,Redroot pigweed plant response rating,pigweed; [16],2
same,Redroot pigweed plant response rating,pigweed; [8],0
same,Redroot pigweed plant response rating,pigweed; [9],0
same,"Plant response rating, Redroot pigweed",pigweed; [17],0
same,"Plant response rating, Barley (winter)","winter barley; Rate 250 g/ha, 0 to 100 scale, 0 no effect, 100 complete control",50
same,"Plant response rating, Barley (winter)",winter barley; [11],20
same,"Plant response rating, Barley (winter)",winter barley; [12],70
same,Morningglory plant response rating,morningglory; [5],0
same,Morningglory plant response rating (0 to 10 scale),"morningglory; Preemergence, Rate 125 g/ha",0
same,Morningglory plant response rating,morningglory; [15],0
same,Morningglory plant response rating,morningglory; [16],0
same,Morningglory plant response rating,morningglory; [8],1
same,Morningglory plant response rating,morningglory; [9],1
same,"Plant response rating, Morningglory",morningglory; [17],2
same,"Plant response rating, Wild oat","wild oat; Rate 250 g/ha, 0 to 100 scale",50
same,"Plant response rating, Wild oat",wild oat; [11],50
same,"Plant response rating, Wild oat",wild oat; [12],70
